We go through one compound from patent US20230303712A1, “METHODS OF TREATING GLIOBLASTOMA” (Ramot at Tel-Aviv University Ltd., priority 2020, published 2023).

Entries after “also recorded” stand apart in the source; their conditions may differ.

What all share (assay type): cell-based
Test [1] concerns human GB cells (PD-GB4, U251, PD-GB 1, PD-GB3). Description: 3D spheroid invasion in Matrigel, human GB cells co-cultured with human microglia. On the procedure:
Tumor spheroids. Tumor spheroids were prepared from mCherry/iRFP/GFP-labeled patient-derived, human U251 or murine GB cells (GL261, iAGR53, PNp53, EGFRviii-shP16), either alone or co-cultured with unlabeled primary human/murine microglia (4:1 ratio), using our modified hanging-drop method, as we previously described. For assessment of cell invasion, GB spheroids (4,000 cells/sphere) were embedded in Matrigel (Corning), seeded in a 96-well plate, and incubated with complete DMEM or complete DMEM supplemented with SELPi (0.5 µM). […] For FACS analysis, GB spheroids (8,000 cells/sphere) were embedded in Matrigel, seeded in a 12-well plate, and treated with complete DMEM, 0% serum microglia medium or microglia CM for 24-48 h. Cells were then recovered using Cell Recovery Solution (Corning) and further analyzed by FACS.

For test [2], the system named is primary human microglia. Description: Real-time PCR gene expression (ARG1, iNOS, IL-10, TGF-β) in microglia treated with rSELP. The settings on record: added on top of rSELP; SELPi 0.5 µM, antibodies 2.5 µg/ml, 48 h. On the procedure: To evaluate microglial expression of IL-10 TGF-β, ARG1 and iNOS by primary human microglia (1 × 10^6 cells), cells were seeded in PLL-coated plates. Twenty-four hours post-seeding cells were treated with: 0% serum DMEM alone, or exposed to rSELP (1.5 µg/ml), or exposed to rSELP and SELPi (0.5 µM), or exposed to rSELP and anti-PSGL-1 neutralizing antibody (2.5 µg/ml), or exposed to rSELP and anti-CD44 neutralizing antibody (2.5 µg/ml), or exposed to rSELP and anti-CD24 neutralizing antibody (2.5 µg/ml) for 48 h.
Real-time PCR. The expression level of target genes was assessed by SYBR green real-time PCR (StepOne plus, Life Technologies) and normalized to GAPDH housekeeping gene. Primers used were: […]

Test [3] deals with primary human microglia. Description: Phagocytosis assay with fluorescent latex beads. Particulars: added to rSELP; SELPi 0.5 µM, antibodies 2.5 µg/ml. On the procedure: Phagocytosis assay. Primary human/murine microglia were seeded in 96 well plates (1 × 10^5 cells/ml) in microglia medium, microglia medium supplemented with rSELP (1.5 µg/ml for human microglia and 3.5 µg/ml for murine microglia), microglia medium supplemented with rSELP and SELPi (0.5 µM), microglia medium supplemented with rSELP and anti-PSGL-1 neutralizing antibody (2.5 µg/ml), microglia medium 13 supplemented with rSELP and anti-CD44 neutralizing antibody (2.5 µg/ml) or microglia medium supplemented with rSELP and anti-CD24 neutralizing antibody (2.5 µg/ml) for 48 h. The medium was then replaced by fresh microglia medium containing green fluorescence latex beads for 2-6 h and washed with PBS supplemented with Hoechst staining solution for 10 min. For evaluation of murine macrophages phagocytosis abilities, macrophages were seeded in 96 well plates (5 × 10^5 cells/ml), treated with macrophages medium, macrophages medium supplemented with rSELP (3.5 µg/ml), macrophages medium supplemented with rSELP and SELPi (0.5 µM), macrophages medium supplemented with rSELP and anti-PSGL-1 neutralizing antibody (2.5 µg/ml), macrophages medium supplemented with rSELP and anti-CD44 neutralizing antibody (2.5 µg/ml) or macrophages medium supplemented with rSELP and anti-CD24 neutralizing antibody (2.5 µg/ml) for 48 h. […]

The subject of a further test is human microglia. The experiment in a line: Flow cytometry of CD163 and CD206 expression by microglia. Particulars: PD-GB4 CM with rSELP, or SELPi added to PD-GB4 CM. How it is done:
Flow cytometry. For flow cytometry assays, cells were harvested using a cell scraper, and were then washed with PBS followed by additional washes with PBS supplemented with 1% BSA and 5 mM EDTA (FACS buffer). Tumor spheroids were recovered from Matrigel using Cell Recovery Solution (Corning) and washed with FACS buffer. To validate the purity of the microglia preparations, CD11b isolated cells or human microglia were incubated with TMEM119 and P2Y12-labeled antibodies for 1 h. For human TMEM119, primary antibody was unlabeled and cells were washed and incubated with secondary, Alexa 488 conjugated antibody. To assess P-Selectin and PSGL-1 expression, GB cells and microglia were seeded alone, co-cultured in a 2D petri dish, or grown as spheroids seeded in Matrigel. Cells were treated with control medium or CM for 48 h. They were then incubated with mouse anti-human P-Selectin antibody for 1 h on ice, and then were washed, and incubated with Alexa-488 labeled anti-mouse IgG binding protein for 1 h on ice. Alternatively, cells were incubated with rat anti-human PSGL antibody, and then were washed, and incubated with goat anti-rat, Alexa-488 labeled antibody for 1 h on ice. […] Fluorescence intensity was assessed using either an Attune flow cytometer (Life Technologies) or a Gallios™ flow cytometer (Beckman Coulter, USA) and the results were analyzed by Kaluza software (Beckman Coulter, USA).

For `COc1ccc(C2CC(c3c(O)cc(C)oc3=O)=NCCS2)c(OC)c1` (centres unmarked) [SELPi, 3-[7-(2,4-Dimethoxyphenyl)-2,3,6,7-tetrahydro-1,4-thiazepin-5-yl]-4-hydroxy-6-methyl-2H-pyran-2-one], the 3D spheroid invasion result in test [1] (PD-GB4 GB cells with human microglia, 0.5 µM SELPi or SELP knockdown, 72 h) is recorded as “reduced invasion”. For the same compound, the “3D spheroid invasion, further human GB models” value in test [1] (human U251, PD-GB 1, PD-GB3) was “effect of SELPi on GB spheroids was observed”. In addition, the “rescue of rSELP effects on ARG1, iNOS, IL-10, TGF-β expression” value with primary human microglia [2] was “rescue the effects of rSELP; also recorded: rescued rSELP effects”. In addition, the “restoration of phagocytic function” value with primary human microglia [3] is “restored the phagocytic function”. Also, the CD206 expression entry in the test with human microglia was “reduced CD206 expression”.
